{
  "source": "patent US11945822B2",
  "about": "“Pyrazolo-triazine and/or pyrazolo-pxrimidine derivatives as selective inhibitor of cyclin dependent kinase” (QURIENT CO., LTD., priority 2018, dated 2024)",
  "assay_in_all_cases": "In vitro IC50 profile for CDKs family kinase (33PanQinase radiometric assay)",
  "format_in_all_cases": "biochemical",
  "details_in_all_cases": "CDK7 selectivity profile in CDKs family",
  "key": {"[1]": {"target": "T1, CDK7/CycH/MAT1 (Homo sapiens, UniProt P50613)", "T1 construct": "purchased ProQinase GmbH", "experimental": "(§1) In Vitro IC50 Profile for CDK7 Inhibitor Among 28 CDKs Family Kinases.\n(§2) The IC50 profile of compounds were determined using 28 CDKs family protein kinases through ProQinase GmbH (Freiburg, Germany). All the protocol and materials had been provided by ProQinase GmbH. Briefly, in the process, 90 μl H2O were added to each well of a compound dilution plate. To minimize potential precipitation, the H2O was added to the plate only a few minutes before the transfer of the compound solutions into the assay plates. The plate was shaken thoroughly, resulting in a “compound dilution plate/10% DMSO”. The compound dilution plate(s) were discarded at the end of the working day. For the assays (see below), 5 μl solution from each well of the compound dilution plate were transferred into the assay plates. The final volume of the assay was 50 μl. All compounds were tested at 10 final assay concentrations in the range from 1×10^−05 M to 3×10^−10 M. The final DMSO concentration in the reaction cocktails was 1% in all cases. All protein kinases provided by ProQinase were expressed in Sf9 insect cells or in E. coli as recombinant GST-fusion proteins or His-tagged proteins, either as full-length or enzymatically active fragments. All kinases were produced from human cDNAs and purified by either GSH affinity chromatography or immobilized metal affinity chromatography. The purity of the protein kinases was examined by SDS-PAGE/Coomassie staining, the identity was checked by mass spectroscopy. Kinases from external vendors, Carna Biosciences Inc.; Invitrogen Corp.; and Millipore Corp., were expressed, purified and quality-controlled by virtue of the vendors readings. A radiometric protein kinase assay (^33PanQinase® Activity Assay) was used for measuring the kinase activity of the 28 protein kinases. All kinase assays were performed in 96-well FlashPlates™ from PerkinElmer (Boston, MA, USA) in a 50 μl reaction volume. The reaction cocktails were incubated at 30° C. for 60 minutes. The reaction was stopped with 50 μl of 2% (v/v) H3PO4, plates were aspirated and washed two times with 200 μl 0.9% (w/v) NaCl. Incorporation of ^33Pi was determined with a microplate scintillation counter (Microbeta, Wallac). All assays were performed with a BeckmanCoulter/SAGIAN™ Core System. As part of the data evaluation the low control value from a particular plate was subtracted from the high control value as well as from all 80 “compound values” of the corresponding plate. The residual activity (in %) for each well of a particular plate was calculated by using the following formula: Res. Activity (%)=100×[(cpm of compound−low control)/(high control−low control)]. Results are represented in table (table 10)."}, "[2]": {"target": "T2, CDK4/CycD3 (Homo sapiens, UniProt P11802)", "T2 construct": "purchased ProQinase GmbH", "experimental": "as §1, §2"}, "[3]": {"target": "T3, CDK3/CycE1 (Homo sapiens, UniProt Q00526)", "T3 construct": "purchased ProQinase GmbH", "experimental": "as §1, §2"}, "[4]": {"target": "T4, CDK3/CycC (Homo sapiens, UniProt Q00526)", "T4 construct": "purchased ProQinase GmbH", "experimental": "as §1, §2"}, "[5]": {"target": "T5, CDK1/CycA2 (Homo sapiens, UniProt P06493)", "T5 construct": "purchased ProQinase GmbH", "experimental": "as §1, §2"}, "[6]": {"target": "T6, CDK20/CycH (Homo sapiens, UniProt Q8IZL9)", "T6 construct": "either as full-length or enzymatically active fragments; purchased ProQinase GmbH (Freiburg, Germany)", "experimental": "as §1, §2"}, "[7]": {"target": "T7, CDK4/CycD2 (Homo sapiens, UniProt P11802)", "T7 construct": "purchased ProQinase GmbH", "experimental": "as §1, §2"}, "[8]": {"target": "T8, CDK9/CycT1 (Homo sapiens, UniProt P50750)", "T8 construct": "purchased ProQinase GmbH", "experimental": "as §1, §2"}, "[9]": {"target": "T9, CDK5/p35NCK (Homo sapiens, UniProt Q00535)", "T9 construct": "purchased ProQinase GmbH", "experimental": "as §1, §2"}, "[10]": {"target": "T10, CDK6/CycD2 (Homo sapiens, UniProt Q00534)", "T10 construct": "purchased ProQinase GmbH", "experimental": "as §1, §2"}, "[11]": {"target": "T11, CDK2/CycE1 (Homo sapiens, UniProt P24941)", "T11 construct": "purchased ProQinase GmbH", "experimental": "as §1, §2"}, "[12]": {"target": "T12, CDK6/CycD3 (Homo sapiens, UniProt Q00534)", "T12 construct": "purchased ProQinase GmbH", "experimental": "as §1, §2"}, "[13]": {"target": "T13, CDK13/CycK (Homo sapiens, UniProt Q14004)", "T13 construct": "either as full-length or enzymatically active fragments; purchased ProQinase GmbH (Freiburg, Germany)", "experimental": "as §1, §2"}, "[14]": {"target": "T14, CDK2/CycD1 (Homo sapiens, UniProt P24941)", "T14 construct": "purchased ProQinase GmbH", "experimental": "as §1, §2"}, "[15]": {"target": "T15, CDK19/CycC (Homo sapiens, UniProt Q9BWU1)", "T15 construct": "either as full-length or enzymatically active fragments; purchased ProQinase GmbH (Freiburg, Germany)", "experimental": "as §1, §2"}, "[16]": {"target": "T16, CDK6/CycD1 (Homo sapiens, UniProt Q00534)", "T16 construct": "purchased ProQinase GmbH", "experimental": "as §1, §2"}, "[17]": {"target": "T17, CDK17/p35NCK (Homo sapiens, UniProt Q00537)", "T17 construct": "either as full-length or enzymatically active fragments; purchased ProQinase GmbH (Freiburg, Germany)", "experimental": "as §1, §2"}, "[18]": {"target": "T18, CDK12 wt/CycK (Homo sapiens, UniProt Q9NYV4)", "T18 construct": "purchased ProQinase GmbH", "experimental": "as §1, §2"}, "[19]": {"target": "T19, CDK1/CycB1 (Homo sapiens, UniProt P06493)", "T19 construct": "purchased ProQinase GmbH", "experimental": "as §1, §2"}, "[20]": {"target": "T20, CDK16/CycY (Homo sapiens, UniProt Q00536)", "T20 construct": "either as full-length or enzymatically active fragments; purchased ProQinase GmbH (Freiburg, Germany)", "experimental": "as §1, §2"}, "[21]": {"target": "T21, CDK8/CycC (Homo sapiens, UniProt P49336)", "T21 construct": "purchased ProQinase GmbH", "experimental": "as §1, §2"}, "[22]": {"target": "T22, CDK5/p25NCK (Homo sapiens, UniProt Q00535)", "T22 construct": "purchased ProQinase GmbH", "T22 sequence (Q00535 whole entry)": "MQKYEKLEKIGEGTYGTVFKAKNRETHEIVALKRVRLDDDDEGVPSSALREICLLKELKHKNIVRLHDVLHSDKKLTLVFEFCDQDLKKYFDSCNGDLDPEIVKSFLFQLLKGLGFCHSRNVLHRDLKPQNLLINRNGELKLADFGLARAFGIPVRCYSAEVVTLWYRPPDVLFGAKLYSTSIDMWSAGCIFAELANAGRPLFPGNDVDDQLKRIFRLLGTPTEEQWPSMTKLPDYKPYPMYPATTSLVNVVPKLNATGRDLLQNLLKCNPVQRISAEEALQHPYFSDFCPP", "T22 sequence (Q15078 99-307 partner limits assumed)": "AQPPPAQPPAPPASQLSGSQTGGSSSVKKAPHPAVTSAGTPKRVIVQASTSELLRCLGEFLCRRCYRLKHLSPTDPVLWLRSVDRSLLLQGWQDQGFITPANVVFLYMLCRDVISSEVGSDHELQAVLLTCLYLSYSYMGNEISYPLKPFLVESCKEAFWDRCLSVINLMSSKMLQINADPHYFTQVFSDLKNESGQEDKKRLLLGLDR", "experimental": "as §1, §2"}, "[23]": {"target": "T23, CDK12 R722C/CycK (Homo sapiens, UniProt Q9NYV4, R722C)", "T23 construct": "either as full-length or enzymatically active fragments; purchased ProQinase GmbH (Freiburg, Germany)", "T23 sequence (Q9NYV4 whole entry R722C, the tested form may be a part)": "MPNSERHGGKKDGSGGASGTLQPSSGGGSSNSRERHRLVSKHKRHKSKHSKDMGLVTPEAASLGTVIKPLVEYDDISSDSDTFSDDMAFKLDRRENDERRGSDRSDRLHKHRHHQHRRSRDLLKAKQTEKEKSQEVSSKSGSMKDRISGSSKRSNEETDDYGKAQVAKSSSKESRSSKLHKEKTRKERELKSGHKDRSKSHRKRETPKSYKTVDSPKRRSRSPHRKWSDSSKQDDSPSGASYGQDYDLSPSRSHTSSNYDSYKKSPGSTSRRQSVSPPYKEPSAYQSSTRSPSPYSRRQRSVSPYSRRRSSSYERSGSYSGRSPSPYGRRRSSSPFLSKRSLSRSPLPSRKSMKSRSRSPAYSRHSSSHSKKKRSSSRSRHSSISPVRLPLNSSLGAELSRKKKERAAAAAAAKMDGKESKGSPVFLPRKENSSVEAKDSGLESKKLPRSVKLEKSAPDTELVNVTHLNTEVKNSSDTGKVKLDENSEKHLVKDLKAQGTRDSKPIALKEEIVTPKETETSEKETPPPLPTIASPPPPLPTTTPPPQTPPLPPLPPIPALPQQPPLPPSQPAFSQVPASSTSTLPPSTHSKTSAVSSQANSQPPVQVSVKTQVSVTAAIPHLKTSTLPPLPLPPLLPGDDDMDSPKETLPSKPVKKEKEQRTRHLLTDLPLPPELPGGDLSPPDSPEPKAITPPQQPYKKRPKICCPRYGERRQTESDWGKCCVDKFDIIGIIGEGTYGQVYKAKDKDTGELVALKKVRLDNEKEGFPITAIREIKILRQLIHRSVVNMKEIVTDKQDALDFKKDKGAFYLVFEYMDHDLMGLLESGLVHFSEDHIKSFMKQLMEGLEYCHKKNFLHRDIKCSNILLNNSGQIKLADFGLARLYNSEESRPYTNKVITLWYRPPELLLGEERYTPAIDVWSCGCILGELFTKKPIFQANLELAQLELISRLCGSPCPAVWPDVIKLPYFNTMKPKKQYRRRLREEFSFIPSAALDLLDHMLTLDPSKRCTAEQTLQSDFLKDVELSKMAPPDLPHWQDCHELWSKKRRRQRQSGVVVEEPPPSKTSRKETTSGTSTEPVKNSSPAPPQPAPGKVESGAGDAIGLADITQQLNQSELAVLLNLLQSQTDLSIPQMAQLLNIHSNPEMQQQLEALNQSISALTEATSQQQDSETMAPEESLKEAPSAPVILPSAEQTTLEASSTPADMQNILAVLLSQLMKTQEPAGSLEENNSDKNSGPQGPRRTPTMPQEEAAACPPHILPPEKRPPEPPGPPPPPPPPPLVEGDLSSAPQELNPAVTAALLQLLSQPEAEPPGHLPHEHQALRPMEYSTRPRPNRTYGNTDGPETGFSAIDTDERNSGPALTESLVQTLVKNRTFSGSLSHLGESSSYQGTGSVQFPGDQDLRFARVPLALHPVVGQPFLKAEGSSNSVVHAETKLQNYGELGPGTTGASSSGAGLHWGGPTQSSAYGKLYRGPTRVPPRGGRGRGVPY", "T23 sequence (O75909 whole entry partner, the tested form may be a part)": "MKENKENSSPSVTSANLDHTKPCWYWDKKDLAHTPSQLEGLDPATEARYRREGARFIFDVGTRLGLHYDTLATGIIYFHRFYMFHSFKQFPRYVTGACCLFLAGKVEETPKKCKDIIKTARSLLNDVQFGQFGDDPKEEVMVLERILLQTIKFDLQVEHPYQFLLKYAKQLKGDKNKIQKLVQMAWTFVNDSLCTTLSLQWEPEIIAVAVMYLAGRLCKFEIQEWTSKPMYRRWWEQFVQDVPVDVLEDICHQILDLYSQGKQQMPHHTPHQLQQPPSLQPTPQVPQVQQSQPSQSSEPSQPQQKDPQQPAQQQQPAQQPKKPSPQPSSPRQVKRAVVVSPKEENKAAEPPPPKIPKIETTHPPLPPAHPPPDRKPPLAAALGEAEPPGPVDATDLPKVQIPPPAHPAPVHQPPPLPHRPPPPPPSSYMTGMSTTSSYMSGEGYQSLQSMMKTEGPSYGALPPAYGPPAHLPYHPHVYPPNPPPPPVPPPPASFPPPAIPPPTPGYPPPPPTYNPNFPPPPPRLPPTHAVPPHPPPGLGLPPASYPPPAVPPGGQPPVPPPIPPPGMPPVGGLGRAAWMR", "experimental": "as §1, §2"}, "[24]": {"target": "T24, CDK9/CycK (Homo sapiens, UniProt P50750)", "T24 construct": "purchased ProQinase GmbH", "T24 sequence (P50750 whole entry)": "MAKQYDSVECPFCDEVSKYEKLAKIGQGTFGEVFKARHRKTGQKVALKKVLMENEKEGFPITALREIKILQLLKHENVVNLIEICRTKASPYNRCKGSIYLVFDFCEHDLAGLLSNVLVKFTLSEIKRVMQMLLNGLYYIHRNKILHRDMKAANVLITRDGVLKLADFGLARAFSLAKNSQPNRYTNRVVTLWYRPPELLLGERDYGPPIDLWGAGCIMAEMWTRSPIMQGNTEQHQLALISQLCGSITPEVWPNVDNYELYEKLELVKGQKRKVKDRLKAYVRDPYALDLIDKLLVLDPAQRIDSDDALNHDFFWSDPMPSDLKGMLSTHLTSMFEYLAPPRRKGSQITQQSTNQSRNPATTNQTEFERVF", "T24 sequence (O75909 whole entry partner)": "as the sequence (O75909 whole entry partner, the tested form may be a part) above", "experimental": "as §1, §2"}, "[25]": {"target": "T25, CDK20/CycT1 (Homo sapiens, UniProt Q8IZL9)", "T25 construct": "either as full-length or enzymatically active fragments; purchased ProQinase GmbH (Freiburg, Germany)", "T25 sequence (Q8IZL9 whole entry, the tested form may be a part)": "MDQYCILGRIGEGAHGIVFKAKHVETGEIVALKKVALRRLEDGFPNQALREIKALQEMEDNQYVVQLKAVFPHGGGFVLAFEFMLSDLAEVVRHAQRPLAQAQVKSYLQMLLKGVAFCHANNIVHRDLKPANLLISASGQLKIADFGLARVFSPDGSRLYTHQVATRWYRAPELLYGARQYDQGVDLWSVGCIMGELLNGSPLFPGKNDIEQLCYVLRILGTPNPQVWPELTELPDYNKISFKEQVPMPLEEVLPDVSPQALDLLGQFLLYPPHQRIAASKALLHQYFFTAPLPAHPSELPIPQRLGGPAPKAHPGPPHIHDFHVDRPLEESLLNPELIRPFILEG", "T25 sequence (O60563 whole entry partner, the tested form may be a part)": "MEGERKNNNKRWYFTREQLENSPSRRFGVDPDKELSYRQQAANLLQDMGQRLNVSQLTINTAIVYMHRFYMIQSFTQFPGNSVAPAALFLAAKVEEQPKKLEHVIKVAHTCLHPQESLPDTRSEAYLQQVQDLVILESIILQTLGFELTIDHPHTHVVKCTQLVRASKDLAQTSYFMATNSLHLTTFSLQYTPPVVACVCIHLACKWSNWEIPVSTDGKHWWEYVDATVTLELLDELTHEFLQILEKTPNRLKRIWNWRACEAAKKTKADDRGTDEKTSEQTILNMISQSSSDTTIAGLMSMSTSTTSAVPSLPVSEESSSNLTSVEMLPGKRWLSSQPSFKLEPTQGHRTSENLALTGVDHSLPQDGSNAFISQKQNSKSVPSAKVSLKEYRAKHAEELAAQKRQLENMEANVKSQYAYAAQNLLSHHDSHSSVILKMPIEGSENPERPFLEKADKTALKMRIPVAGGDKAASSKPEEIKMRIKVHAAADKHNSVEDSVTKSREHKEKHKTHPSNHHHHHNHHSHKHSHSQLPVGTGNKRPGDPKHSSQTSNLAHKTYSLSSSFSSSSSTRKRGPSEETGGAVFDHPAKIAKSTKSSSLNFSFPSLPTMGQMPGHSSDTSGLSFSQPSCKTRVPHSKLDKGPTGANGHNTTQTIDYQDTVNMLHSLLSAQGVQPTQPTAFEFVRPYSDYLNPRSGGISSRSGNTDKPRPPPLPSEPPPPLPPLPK", "experimental": "as §1, §2"}},
  "data": [
    {"smiles": "CC(C)c1cnn2c(NCc3c(Cl)cccc3-n3ccc(C(C)(C)O)n3)nc(N3CCC(N)CC3)nc12", "note": "[Compound 210]", "values": [
      {"measurement": "IC50", "setting": "[1]", "result": 0.015, "unit": "µM"},
      {"measurement": "IC50", "setting": "[2]", "result": "> 10", "unit": "µM"},
      {"measurement": "IC50", "setting": "[3]", "result": "> 10", "unit": "µM"},
      {"measurement": "IC50", "setting": "[4]", "result": "> 10", "unit": "µM"},
      {"measurement": "IC50", "setting": "[5]", "result": "> 10", "unit": "µM"},
      {"measurement": "IC50", "setting": "[6]", "result": "> 10", "unit": "µM"},
      {"measurement": "IC50", "setting": "[7]", "result": "> 10", "unit": "µM"},
      {"measurement": "IC50", "setting": "[8]", "result": "> 10", "unit": "µM"},
      {"measurement": "IC50", "setting": "[9]", "result": 4.79, "unit": "µM"},
      {"measurement": "IC50", "setting": "[10]", "result": "> 10", "unit": "µM"},
      {"measurement": "IC50", "setting": "[11]", "result": 3.48, "unit": "µM"},
      {"measurement": "IC50", "setting": "[12]", "result": "> 10", "unit": "µM"},
      {"measurement": "IC50", "setting": "[13]", "result": "> 10", "unit": "µM"},
      {"measurement": "IC50", "setting": "[14]", "result": "> 10", "unit": "µM"},
      {"measurement": "IC50", "setting": "[15]", "result": "> 10", "unit": "µM"},
      {"measurement": "IC50", "setting": "[16]", "result": "> 10", "unit": "µM"},
      {"measurement": "IC50", "setting": "[17]", "result": "> 10", "unit": "µM"},
      {"measurement": "IC50", "setting": "[18]", "result": "> 10", "unit": "µM"},
      {"measurement": "IC50", "setting": "[19]", "result": "> 10", "unit": "µM"},
      {"measurement": "IC50", "setting": "[20]", "result": 3.96, "unit": "µM"},
      {"measurement": "IC50", "setting": "[21]", "result": "> 10", "unit": "µM"},
      {"measurement": "IC50", "setting": "[22]", "result": "> 10", "unit": "µM"},
      {"measurement": "IC50", "setting": "[23]", "result": "> 10", "unit": "µM"},
      {"measurement": "IC50", "setting": "[24]", "result": "> 10", "unit": "µM"},
      {"measurement": "IC50", "setting": "[25]", "result": "> 10", "unit": "µM"}
    ]}
  ]
}
